For one series, the system named is E. faecalis ATCC51575. The series can be described thus: Antibacterial spectrum. The note with it: Enterococcus faecalis.
In a further series the test system is E. faecalis ATCC51299. Nature of the series: Antibacterial spectrum. Particulars: Enterococcus faecalis.
A further series has as its system S. aureus VISA5836. Nature of the series: Antibacterial spectrum. The note with it: Staphylococcus aureus.
Series [1] concerns methicillin-resistant S. aureus (ATCC43300). The series can be described thus: Mouse model of sepsis induced by MRSA. The note with it: 10 mg/kg ig, MRSA ATCC43300, observed 7 days. The series is classed as in vivo, ICR mice.
A further series relates to S. epidermidis MSSE15-3. The series can be described thus: Antibacterial spectrum. The note with it: Staphylococcus epidermidis, MSSE153.
The target in the next series is S. aureus gyrase (Staphylococcus aureus, UniProt P0A0K8). The series can be described thus: Gyrase inhibitory assay. The series is classed as biochemical.
Series [2] concerns S. aureus (ATCC29213). Nature of the series: Antibacterial assay. The note with it: Staphylococcus aureus, ATCC29213, read-out: MIC S. aureus (ATCC29213).
In series [3] the test system is S. aureus (ATCC29213). The series can be described thus: Time-killing curves / killing kinetic studies. The note with it: 4, 8, and 16 × MIC. The series is classed as cell-based.
For another series, the system named is S. aureus MSSA15-1. The series can be described thus: Antibacterial spectrum. The note with it: Staphylococcus aureus, MSSA151.
Another series deals with S. aureus MSSA15-2. Nature of the series: Antibacterial spectrum. Particulars: Staphylococcus aureus, MSSA152.
The test system of another series is S. epidermidis MRSE15-1. The series can be described thus: Antibacterial spectrum. Particulars: Staphylococcus epidermidis, MRSE151.
The next series concerns E. coli (ATCC25922). The series can be described thus: Antibacterial assay. Particulars: for MIC: Escherichia coli, ATCC25922, read-out: MIC E. coli (ATCC25922).
In the next series the test system is S. aureus ATCC43300. The series can be described thus: Antibacterial spectrum. The note with it: Staphylococcus aureus.
The test system of a further series is S. aureus MRSA15-1. Nature of the series: Antibacterial spectrum. Particulars: Staphylococcus aureus, MRSA151.
The next series deals with S. epidermidis MRSE15-2. The series can be described thus: Antibacterial spectrum. The note with it: Staphylococcus epidermidis, MRSE152.
In the next series the test system is S. aureus VISA5827. The series can be described thus: Antibacterial spectrum. The note with it: Staphylococcus aureus.
Another series addresses S. aureus GyrB24 (Staphylococcus aureus, UniProt P0A0K8). The series can be described thus: Surface plasmon resonance. The series is classed as binding. (In SPR one partner is held on a chip, and binding of the other changes the refractive index at the surface.)
Another series relates to S. aureus MRSA15-2. The series can be described thus: Antibacterial spectrum. Particulars: Staphylococcus aureus, MRSA152.
The next series has as its system HepG2 cells. The series can be described thus: Mitochondrial toxicity.
Another series has as its system E. faecium EFM19-1. Nature of the series: Antibacterial spectrum. The note with it: Enterococcus faecium, EFM191.
The target of a further series is E. coli gyrase (Escherichia coli, UniProt P0AES6). Nature of the series: Gyrase inhibitory assay. The class given is biochemical.
For a further series, the target named is E. coli Topo IV (Escherichia coli, UniProt P20083). The series can be described thus: Topo IV inhibitory assay. The series is classed as biochemical.
The next series addresses S. aureus Topo IV (Staphylococcus aureus, UniProt P0C1S7). The series can be described thus: Topo IV inhibitory assay. The class given is biochemical.
The test system of another series is MRSA (ATCC43300). The series can be described thus: Neutropenic murine thigh MRSA infection model. The class given is in vivo, ICR mice. The note with it: neutropenic mouse thigh MRSA infection, iv.

Molecules are shown by their SMILES. ≈ marks a conversion by molar mass, not a printed value.

S. aureus Topo IV, sequence (P0C1S7 whole entry): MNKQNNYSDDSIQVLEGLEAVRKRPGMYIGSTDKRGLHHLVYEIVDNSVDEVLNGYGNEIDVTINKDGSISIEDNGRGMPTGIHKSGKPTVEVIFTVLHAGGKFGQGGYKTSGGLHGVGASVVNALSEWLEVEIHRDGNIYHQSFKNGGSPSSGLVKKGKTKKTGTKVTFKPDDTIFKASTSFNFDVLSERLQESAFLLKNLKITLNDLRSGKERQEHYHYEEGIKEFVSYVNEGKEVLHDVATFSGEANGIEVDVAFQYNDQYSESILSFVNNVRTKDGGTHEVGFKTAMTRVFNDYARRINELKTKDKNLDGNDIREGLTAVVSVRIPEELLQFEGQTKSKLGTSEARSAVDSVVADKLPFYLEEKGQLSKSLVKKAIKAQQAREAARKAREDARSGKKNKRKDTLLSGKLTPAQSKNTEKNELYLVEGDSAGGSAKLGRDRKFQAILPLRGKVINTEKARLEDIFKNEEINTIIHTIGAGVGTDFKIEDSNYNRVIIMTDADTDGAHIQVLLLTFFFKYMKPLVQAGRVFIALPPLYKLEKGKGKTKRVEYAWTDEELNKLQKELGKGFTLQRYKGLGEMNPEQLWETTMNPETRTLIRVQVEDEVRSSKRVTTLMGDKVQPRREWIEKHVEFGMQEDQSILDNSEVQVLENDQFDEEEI
S. aureus Topo IV, sequence (P0C1U9 whole entry partner): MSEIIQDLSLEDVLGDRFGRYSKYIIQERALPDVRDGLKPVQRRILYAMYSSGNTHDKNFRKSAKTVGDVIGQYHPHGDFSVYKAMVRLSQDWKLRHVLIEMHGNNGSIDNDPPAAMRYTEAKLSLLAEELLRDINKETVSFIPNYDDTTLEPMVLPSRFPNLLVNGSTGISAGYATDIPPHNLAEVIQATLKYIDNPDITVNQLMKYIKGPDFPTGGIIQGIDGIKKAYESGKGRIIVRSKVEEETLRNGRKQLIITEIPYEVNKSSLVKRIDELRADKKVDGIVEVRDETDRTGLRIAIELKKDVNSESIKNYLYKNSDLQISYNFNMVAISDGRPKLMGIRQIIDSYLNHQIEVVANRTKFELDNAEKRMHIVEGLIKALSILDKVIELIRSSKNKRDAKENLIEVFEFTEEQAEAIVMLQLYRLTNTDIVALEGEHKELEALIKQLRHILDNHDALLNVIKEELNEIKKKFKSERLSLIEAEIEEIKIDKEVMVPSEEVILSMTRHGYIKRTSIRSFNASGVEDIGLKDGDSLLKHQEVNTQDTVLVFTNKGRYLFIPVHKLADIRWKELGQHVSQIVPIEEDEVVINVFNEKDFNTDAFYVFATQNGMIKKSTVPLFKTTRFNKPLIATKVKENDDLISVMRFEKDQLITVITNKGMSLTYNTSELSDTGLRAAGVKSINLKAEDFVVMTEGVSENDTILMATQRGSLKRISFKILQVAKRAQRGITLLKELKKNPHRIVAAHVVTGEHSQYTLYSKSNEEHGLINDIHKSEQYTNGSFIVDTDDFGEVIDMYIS
E. coli Topo IV, sequence (P20083 whole entry): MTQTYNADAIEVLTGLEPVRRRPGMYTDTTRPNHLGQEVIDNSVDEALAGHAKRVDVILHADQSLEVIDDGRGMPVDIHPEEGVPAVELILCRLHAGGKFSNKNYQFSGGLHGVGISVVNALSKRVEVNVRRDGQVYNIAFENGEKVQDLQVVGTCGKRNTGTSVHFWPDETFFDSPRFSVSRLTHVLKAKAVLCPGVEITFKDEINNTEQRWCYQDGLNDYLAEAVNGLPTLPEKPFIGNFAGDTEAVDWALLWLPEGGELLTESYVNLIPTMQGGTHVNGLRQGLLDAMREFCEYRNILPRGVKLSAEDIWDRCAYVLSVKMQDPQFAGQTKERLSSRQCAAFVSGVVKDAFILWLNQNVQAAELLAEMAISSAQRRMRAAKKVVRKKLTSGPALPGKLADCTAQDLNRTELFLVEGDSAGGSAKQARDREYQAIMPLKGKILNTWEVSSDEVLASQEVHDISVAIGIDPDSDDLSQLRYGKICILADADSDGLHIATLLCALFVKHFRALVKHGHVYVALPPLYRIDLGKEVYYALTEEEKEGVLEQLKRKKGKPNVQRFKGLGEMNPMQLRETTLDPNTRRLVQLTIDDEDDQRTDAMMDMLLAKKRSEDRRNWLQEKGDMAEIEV
E. coli Topo IV, sequence (P0AFI2 whole entry partner): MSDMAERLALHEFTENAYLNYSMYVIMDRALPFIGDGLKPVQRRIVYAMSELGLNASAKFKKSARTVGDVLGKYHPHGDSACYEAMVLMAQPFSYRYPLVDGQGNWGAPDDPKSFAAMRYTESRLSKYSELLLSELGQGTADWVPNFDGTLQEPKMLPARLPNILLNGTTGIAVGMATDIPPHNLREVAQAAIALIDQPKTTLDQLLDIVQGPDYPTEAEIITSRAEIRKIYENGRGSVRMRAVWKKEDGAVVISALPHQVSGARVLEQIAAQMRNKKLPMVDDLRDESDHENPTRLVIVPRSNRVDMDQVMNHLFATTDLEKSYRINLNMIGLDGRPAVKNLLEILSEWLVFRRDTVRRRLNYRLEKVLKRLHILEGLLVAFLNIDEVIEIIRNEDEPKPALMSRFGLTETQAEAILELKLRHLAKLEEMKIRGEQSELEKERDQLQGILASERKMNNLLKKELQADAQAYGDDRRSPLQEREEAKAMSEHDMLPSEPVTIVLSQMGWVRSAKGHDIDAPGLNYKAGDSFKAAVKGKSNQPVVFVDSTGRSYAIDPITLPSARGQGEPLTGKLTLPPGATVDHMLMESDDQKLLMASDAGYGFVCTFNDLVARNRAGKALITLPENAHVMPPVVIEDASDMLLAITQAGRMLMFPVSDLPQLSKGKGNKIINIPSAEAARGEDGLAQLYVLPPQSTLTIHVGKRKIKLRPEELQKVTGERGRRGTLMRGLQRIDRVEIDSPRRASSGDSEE
S. aureus gyrase, sequence (P0A0K8 whole entry): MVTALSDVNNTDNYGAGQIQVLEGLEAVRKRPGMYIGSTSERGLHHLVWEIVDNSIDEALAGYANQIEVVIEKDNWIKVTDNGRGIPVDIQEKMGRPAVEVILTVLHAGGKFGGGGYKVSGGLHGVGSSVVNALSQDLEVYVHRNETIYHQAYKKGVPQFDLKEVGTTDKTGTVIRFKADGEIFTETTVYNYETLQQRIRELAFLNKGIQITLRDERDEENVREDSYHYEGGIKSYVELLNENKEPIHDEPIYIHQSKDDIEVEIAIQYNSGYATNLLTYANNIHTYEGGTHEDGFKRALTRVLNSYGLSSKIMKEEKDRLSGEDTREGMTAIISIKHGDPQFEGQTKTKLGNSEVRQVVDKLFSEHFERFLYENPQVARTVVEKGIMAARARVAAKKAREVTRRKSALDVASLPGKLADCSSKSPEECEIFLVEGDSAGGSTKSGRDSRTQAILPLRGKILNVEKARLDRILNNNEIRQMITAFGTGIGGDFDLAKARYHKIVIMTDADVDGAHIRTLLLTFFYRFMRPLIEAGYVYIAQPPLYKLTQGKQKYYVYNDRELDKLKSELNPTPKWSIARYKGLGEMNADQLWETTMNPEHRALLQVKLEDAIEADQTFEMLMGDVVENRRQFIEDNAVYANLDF
S. aureus gyrase, sequence (P20831 whole entry partner): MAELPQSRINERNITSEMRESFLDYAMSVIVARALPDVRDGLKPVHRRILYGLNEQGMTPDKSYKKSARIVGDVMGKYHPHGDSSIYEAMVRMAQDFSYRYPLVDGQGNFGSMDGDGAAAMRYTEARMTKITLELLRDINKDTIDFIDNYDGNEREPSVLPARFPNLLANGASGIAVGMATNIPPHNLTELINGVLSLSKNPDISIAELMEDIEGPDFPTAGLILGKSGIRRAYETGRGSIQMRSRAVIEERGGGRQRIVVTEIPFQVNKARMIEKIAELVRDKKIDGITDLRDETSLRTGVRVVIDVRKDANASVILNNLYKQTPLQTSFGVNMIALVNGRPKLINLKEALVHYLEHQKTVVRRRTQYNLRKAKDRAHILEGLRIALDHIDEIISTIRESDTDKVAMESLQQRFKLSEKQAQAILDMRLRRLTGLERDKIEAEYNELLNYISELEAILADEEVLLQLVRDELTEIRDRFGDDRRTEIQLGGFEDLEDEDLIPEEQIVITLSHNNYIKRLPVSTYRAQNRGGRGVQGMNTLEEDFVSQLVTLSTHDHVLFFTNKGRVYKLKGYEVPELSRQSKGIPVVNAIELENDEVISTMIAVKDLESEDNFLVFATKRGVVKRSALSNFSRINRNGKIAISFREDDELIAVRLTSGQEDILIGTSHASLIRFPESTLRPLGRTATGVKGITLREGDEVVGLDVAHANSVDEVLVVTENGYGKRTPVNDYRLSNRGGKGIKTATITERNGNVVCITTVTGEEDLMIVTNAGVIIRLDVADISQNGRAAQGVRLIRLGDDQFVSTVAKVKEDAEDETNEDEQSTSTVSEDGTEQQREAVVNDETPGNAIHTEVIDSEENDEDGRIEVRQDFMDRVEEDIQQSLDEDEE
S. aureus GyrB24, sequence (P0A0K8 2-220): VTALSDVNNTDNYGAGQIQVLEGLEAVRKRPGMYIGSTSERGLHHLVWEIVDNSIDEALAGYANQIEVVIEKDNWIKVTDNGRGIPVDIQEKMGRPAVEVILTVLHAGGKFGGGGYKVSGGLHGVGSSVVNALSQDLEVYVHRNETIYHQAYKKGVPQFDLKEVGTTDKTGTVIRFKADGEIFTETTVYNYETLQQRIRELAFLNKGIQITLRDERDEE

With `COC[C@H](C)NC(=O)c1nc(N2CC[C@@H](NC(=O)c3[nH]c(C)c(Cl)c3Cl)[C@@H](OC)C2)sc1C(=O)O` [AZD5099 (6), reference compound], the MIC – broadly, the least concentration at which growth counts as inhibited – with E. faecalis ATCC51575 amounted to 0.03 µg/mL (≈ 0.0547 µM); in the series on E. faecalis ATCC51299, 0.03 µg/mL (≈ 0.0547 µM); against S. aureus VISA5836 it was 0.015 µg/mL (≈ 0.0273 µM); in the series with S. epidermidis MSSE15-3, 0.03 µg/mL (≈ 0.0547 µM); in the series on S. aureus (ATCC29213) [2] it was 0.015 µg/mL (≈ 0.0273 µM); against S. aureus MSSA15-1, 0.03 µg/mL (≈ 0.0547 µM). The MIC against S. aureus MSSA15-2 was 0.03 µg/mL (≈ 0.0547 µM); with S. epidermidis MRSE15-1 it was 0.03 µg/mL (≈ 0.0547 µM); with E. coli (ATCC25922), 32 µg/mL (≈ 58.3 µM); against S. aureus ATCC43300, 0.03 µg/mL (≈ 0.0547 µM); in the series with S. aureus MRSA15-1, 0.03 µg/mL (≈ 0.0547 µM); in the series on S. epidermidis MRSE15-2 it was 0.03 µg/mL (≈ 0.0547 µM). Further, the MIC was determined as 0.015 µg/mL (≈ 0.0273 µM) in the series with S. aureus VISA5827, 0.03 µg/mL (≈ 0.0547 µM) against S. aureus MRSA15-2 and 0.03 µg/mL (≈ 0.0547 µM) in the series on E. faecium EFM19-1. For the same compound, the “protective effect / survival in mouse model of sepsis” value (from here on “protective effect / survival”) in series [1] is recorded as “survived”. In addition, the IC50 – broadly, the concentration that gives 50% inhibition – against S. aureus gyrase is 32 ± 14 nM; in the series with HepG2 cells (Homo sapiens, HepG2, read-out: mitochondrial toxicity IC50) it was under 200 µM; against E. coli gyrase it was 760 nM. Also, in the series on S. aureus (ATCC29213) [3], the “time-kill curve” value is “time-dependent bactericidal effect”. Besides, at S. aureus GyrB24, binding was characterised by a dissociation constant (Kd) of 83.8 nM. Also, the “mitochondrial toxicity” value in the series on HepG2 cells (HepG2 cells, 400 μmol/L) was “complete damage”.

Consider `COC(=O)c1ccc(N2CC[C@@H](NC(=O)c3[nH]c(C)c(Cl)c3Cl)[C@@H](OC)C2)nn1` [Compound 14, Methyl-6-((3S,4R)-4-(3,4-dichloro-5-methyl-1H-pyrrole-2-carboxamido)-3-methoxypiperidin-1-yl)pyridazine-3-carboxylate], for which, in [1], the “protective effect / survival” value is listed as “weak protective effects”. In addition, the IC50 against S. aureus gyrase is 136 ± 20 nM; on E. coli Topo IV, over 10 µM; against S. aureus Topo IV, 7.18 ± 2.81 µM; at E. coli gyrase, 3120 ± 923 nM. The MIC with S. aureus (ATCC29213) [2] amounted to 0.015 µg/mL (≈ 0.0339 µM); with E. coli (ATCC25922) it was 1 µg/mL (≈ 2.26 µM).

Take `CO[C@H]1CN(c2ccc(C(=O)C(F)(F)F)nn2)CC[C@H]1NC(=O)c1[nH]c(C)c(Cl)c1Cl` [Compound 22, 3,4-Dichloro-N-((3S,4R)-3-methoxy-1-(6-(2,2,2-trifluoroacetyl)pyridazin-3-yl)piperidin-4-yl)-5-methyl-1H-pyrrole-2-carboxamide]: the “protective effect / survival” value in series [1] is “weak protective effects”. The IC50 was 45 ± 9 nM at S. aureus gyrase, over 10 µM at E. coli Topo IV, 2.13 ± 0.753 µM at S. aureus Topo IV and 788 ± 289 nM against E. coli gyrase. For the same compound, the minimum inhibitory concentration (MIC) in the series with S. aureus (ATCC29213) [2] is at most 0.015 µg/mL; in the series with E. coli (ATCC25922), 1 µg/mL (≈ 2.08 µM).

With `CO[C@H]1CN(c2ccc(/C(C)=N/O)nn2)CC[C@H]1NC(=O)c1[nH]c(C)c(Cl)c1Cl` [Compound 23, 3,4-Dichloro-N-((3S,4R)-1-(6-((E)-1-(hydroxyimino)ethyl)pyridazin-3-yl)-3-methoxypiperidin-4-yl)-5-methyl-1H-pyrrole-2-carboxamide], in series [1], the “protective effect / survival” value was “weak protective effects”. For the same compound, the IC50 worked out at 1490 ± 234 nM at S. aureus gyrase and 2560 nM against E. coli gyrase. Besides, the MIC was at most 0.015 µg/mL with S. aureus (ATCC29213) [2] and 1 µg/mL (≈ 2.27 µM) in the series with E. coli (ATCC25922).

As for `CO[C@H]1CN(c2ccc(/C(C)=N/OC(C)(C)C(=O)O)nn2)CC[C@H]1NC(=O)c1[nH]c(C)c(Cl)c1Cl` [Compound 26, 2-((((E)-1-(6-((3S,4R)-4-(3,4-Dichloro-5-methyl-1H-pyrrole-2-carboxamido)-3-methoxypiperidin-1-yl)pyridazin-3-yl)ethylidene)amino)oxy)-2-methylpropanoic acid], the IC50 was 52 ± 13 nM against S. aureus gyrase, over 10 µM on E. coli Topo IV, 5.71 ± 2.14 µM at S. aureus Topo IV and 869 ± 313 nM on E. coli gyrase. For the same compound, the MIC in the series on S. aureus (ATCC29213) [2] was 0.125 µg/mL (≈ 0.237 µM); with E. coli (ATCC25922), over 128 µg/mL. Besides, the “MIC E. coli (ATCC25922)” value against E. coli (ATCC25922) is “inactive”.

Consider `CO[C@@H]1[C@@H](OC(N)=O)[C@@H](O)[C@H](Oc2ccc3c(O)c(NC(=O)c4ccc(O)c(CC=C(C)C)c4)c(=O)oc3c2C)OC1(C)C` [novobiocin (1), novobiocin, reference compound], for which the figures for the MIC in the series on S. aureus (ATCC29213) [2] and in the series on E. coli (ATCC25922) were 0.5 µg/mL (≈ 0.816 µM) and 128 µg/mL (≈ 209 µM), respectively. The compound also returned an IC50 at S. aureus Topo IV of 0.383 ± 0.12 µM.

Take `CN[C@H](CC(C)C)C(=O)N[C@H]1C(=O)N[C@@H](CC(N)=O)C(=O)N[C@H]2C(=O)N[C@H]3C(=O)N[C@H](C(=O)N[C@H](C(=O)O)c4cc(O)cc(O)c4-c4cc3ccc4O)[C@H](O)c3ccc(c(Cl)c3)Oc3cc2cc(c3O[C@@H]2O[C@H](CO)[C@@H](O)[C@H](O)[C@H]2O[C@H]2C[C@](C)(N)[C@H](O)[C@H](C)O2)Oc2ccc(cc2Cl)[C@H]1O` [vancomycin, reference compound]: the effective dose in the series on MRSA (ATCC43300) worked out at 110 mg/kg.
